Like-named read-outs stand apart in the source and are kept apart here. *1 amine or outer side, *2 acyl side, *3 side chain or, on linkers, in order; H or OH if unused. Where a SMILES comes first, the peptide text is derived from it. Side-chain parts run from the residue outwards. [ ]: non-standard residue; d: D form. The star is where a group is joined. αMePhe(2-F) = C[C@](N)(Cc1ccccc1F)C(=O)O; γGlu = O=C(O)[C@H](CCC(=O)[*:2])N[*:1]; C14 diacid = O=C(O)CCCCCCCCCCCCC(=O)*; αMeY = C[C@](N)(Cc1ccc(O)cc1)C(=O)O; 4Pal = N[C@@H](Cc1ccncc1)C(=O)O; αMeL = CC(C)C[C@](C)(N)C(=O)O; Orn = NCCC[C@H](N)C(=O)O; AEEA = NCCOCCOCC(=O)O; Aib = CC(C)(N)C(=O)O

These results are taken from patent US20230265151A1, “GIP/GLP1 CO-AGONIST COMPOUNDS” (priority 2020, published 2023).

Format in all cases: cell-based
The target in one assay is T1, hGCGR (Homo sapiens, UniProt P47871).
T1 construct: expressed in transfected cells
T1 sequence (P47871 26-477): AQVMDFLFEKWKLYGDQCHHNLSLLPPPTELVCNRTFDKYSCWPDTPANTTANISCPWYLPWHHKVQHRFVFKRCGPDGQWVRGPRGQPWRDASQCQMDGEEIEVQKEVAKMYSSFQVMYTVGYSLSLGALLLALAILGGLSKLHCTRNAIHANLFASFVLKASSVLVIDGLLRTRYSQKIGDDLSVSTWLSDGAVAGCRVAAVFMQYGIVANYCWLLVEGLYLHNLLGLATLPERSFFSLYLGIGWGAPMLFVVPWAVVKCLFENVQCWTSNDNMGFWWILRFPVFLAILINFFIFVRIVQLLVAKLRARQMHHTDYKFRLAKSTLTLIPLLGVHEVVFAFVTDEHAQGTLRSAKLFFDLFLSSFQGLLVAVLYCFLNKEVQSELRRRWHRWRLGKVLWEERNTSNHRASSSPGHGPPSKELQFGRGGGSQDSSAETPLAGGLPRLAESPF
Nature of the assay: Functional cAMP formation (HTRF) in HEK-293 clonal cells expressing hGCGR, 0.1% bovine casein, without or with 1.0% human serum albumin. The conditions noted are these: geometric mean. Put shortly: (§1)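 Cells were stimulated with peptide for 30 min at 37° C, then intracellular cAMP was measured by competitive HTRF (665/620 nm ratio) and converted to nM using a cAMP standard curve. Relative EC50 and Emax came from four-parameter logistic fits of percent maximal response against peptide concentration.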

A further assay has as its target T2, hGIPR (Homo sapiens, UniProt P48546).
T2 construct: expressed in transfected cells
T2 sequence (P48546 22-466): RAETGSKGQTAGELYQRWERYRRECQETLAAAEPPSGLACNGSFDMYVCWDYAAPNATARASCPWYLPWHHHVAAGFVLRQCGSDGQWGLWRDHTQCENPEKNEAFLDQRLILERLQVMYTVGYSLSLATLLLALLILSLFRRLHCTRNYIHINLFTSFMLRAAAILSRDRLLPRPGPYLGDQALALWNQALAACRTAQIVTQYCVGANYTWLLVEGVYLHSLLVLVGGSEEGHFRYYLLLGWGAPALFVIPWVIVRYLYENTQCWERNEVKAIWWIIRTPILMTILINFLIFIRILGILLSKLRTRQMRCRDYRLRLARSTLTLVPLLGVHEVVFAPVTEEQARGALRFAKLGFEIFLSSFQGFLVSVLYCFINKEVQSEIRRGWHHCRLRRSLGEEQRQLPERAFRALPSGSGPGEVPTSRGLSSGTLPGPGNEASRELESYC
Nature of the assay: Functional cAMP formation (HTRF) in HEK-293 clonal cells expressing hGIPR, 0.1% bovine casein, without or with 1.0% human serum albumin. The conditions noted are these: for EC50: geometric mean. Put shortly:
as §1

A further assay concerns the target hGLP-1R (Homo sapiens, UniProt P43220). Nature of the assay: Functional cAMP formation (HTRF) in HEK-293 clonal cells expressing hGLP-1R, 0.1% bovine casein, without or with 1.0% human serum albumin. Also noted: expressed in transfected cells. Conditions: for EC50: geometric mean; for Emax: read-out: hGLP-1R Emax, % ± SEM. In a few lines:
as §1

The mark [1] stands for this setting: 0.1% bovine casein and 1.0% human serum albumin, 37° C., read-out: hGCGR EC50, nM (SEM, n).
[2] abbreviates: cAMP, incubated at 37° C., 0.1% bovine casein (no human serum albumin), read-out: hGCGR EC50, nM (SEM, n).
Where [3] appears, read: HEK293, 0.1% bovine casein and 1.0% human serum albumin, 37° C., percent of maximal response to GIP(1-42)NH2, read-out: hGIPR Emax, % ± SEM.
Setting [4] is: HEK293, percent of maximal response to GIP(1-42)NH2, 37° C., 0.1% bovine casein, arithmetic mean, read-out: hGIPR Emax, % ± SEM.
Where [5] appears, read: cAMP, incubated at 37° C., 0.1% bovine casein (no human serum albumin), read-out: hGIPR EC50, nM (SEM, n).
[6] abbreviates: HEK293, 0.1% bovine casein and 1.0% human serum albumin, 37° C., percent of maximal response to GLP-1(7-36)NH2.
Setting [7] is: HEK293, percent of maximal response to GLP-1(7-36)NH2, 37° C., 0.1% bovine casein, arithmetic mean.

Sequence of hGLP-1R (P43220 24-463): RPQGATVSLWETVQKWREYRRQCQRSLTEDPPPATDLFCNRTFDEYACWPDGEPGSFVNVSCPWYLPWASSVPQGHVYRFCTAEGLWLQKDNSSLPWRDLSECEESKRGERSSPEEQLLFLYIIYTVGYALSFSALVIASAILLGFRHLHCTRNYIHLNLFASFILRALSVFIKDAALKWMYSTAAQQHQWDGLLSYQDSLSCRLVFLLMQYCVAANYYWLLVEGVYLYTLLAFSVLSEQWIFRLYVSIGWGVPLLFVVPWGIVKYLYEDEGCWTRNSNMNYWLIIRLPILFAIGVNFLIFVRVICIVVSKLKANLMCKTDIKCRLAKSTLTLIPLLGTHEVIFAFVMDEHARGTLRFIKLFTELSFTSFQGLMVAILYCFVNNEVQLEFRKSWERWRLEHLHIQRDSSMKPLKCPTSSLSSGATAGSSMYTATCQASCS

In the case of `CC[C@H](C)[C@H](NC(=O)[C@H](CC(C)C)NC(=O)[C@](C)(Cc1ccc(O)cc1)NC(=O)[C@@H](CCC(=O)O)NC(=O)[C@@H](NC(=O)[C@H](Cc1ccccc1)NC(=O)[C@H](CCC(=O)O)NC(=O)C(C)(C)NC(=O)[C@H](CCC(N)=O)NC(=O)[C@H](C)NC(=O)[C@H](CCCCNC(=O)COCCOCCNC(=O)COCCOCCNC(=O)CCCCCCCCCOc1ccc(C(=O)O)cc1)NC(=O)[C@H](CCCN)NC(=O)[C@H](CC(=O)O)NC(=O)[C@H](CC(C)C)NC(=O)[C@](C)(CC(C)C)NC(=O)[C@@H](NC(=O)[C@H](CO)NC(=O)[C@H](Cc1ccncc1)NC(=O)[C@H](CC(=O)O)NC(=O)[C@H](CO)NC(=O)[C@@H](NC(=O)[C@](C)(Cc1ccccc1F)NC(=O)[C@@H](NC(=O)CNC(=O)[C@H](CCC(=O)O)NC(=O)C(C)(C)NC(=O)[C@@H](N)Cc1ccc(O)cc1)[C@@H](C)O)[C@@H](C)O)[C@@H](C)CC)[C@@H](C)CC)C(=O)N[C@@H](CCC(=O)O)C(=O)NCC(=O)NCC(=O)N[C@@H](CCCCNC(=O)COCCOCCNC(=O)COCCOCCNC(=O)CCCCCCCCCOc1ccc(C(=O)O)cc1)C(=O)N[C@@H](CO)C(=O)N[C@@H](CO)C(=O)NCC(=O)N[C@@H](C)C(=O)N1CCC[C@H]1C(=O)N1CCC[C@H]1C(=O)N1CCC[C@H]1C(=O)N[C@@H](CO)C(N)=O` [Example 10], the EC50 was greater than 9950 nM at hGCGR (hGCGR EC50, nM (SEM, n), 0.1% bovine casein and 1.0% human serum albumin, 37° C.); greater than 9950 nM at hGCGR (hGCGR EC50, nM (SEM, n), cAMP, incubated at 37° C., 0.1% bovine casein (no human serum albumin)); 0.121 nM at hGIPR (hGIPR EC50, nM (SEM, n), 0.1% bovine casein and 1.0% human serum albumin, 37° C.); 0.0106 nM at hGIPR (hGIPR EC50, nM (SEM, n), cAMP, incubated at 37° C., 0.1% bovine casein (no human serum albumin)); 4.38 nM on hGLP-1R (hGLP-1R EC50, nM (SEM, n), 0.1% bovine casein and 1.0% human serum albumin, 37° C.). Also, the Emax at hGIPR (HEK293, read-out: hGIPR Emax, % ± SEM, 0.1% bovine casein and 1.0% human serum albumin, 37° C., percent of maximal response to GIP(1-42)NH2) stood at 84.9 ± 1.84%; at hGIPR (HEK293, read-out: hGIPR Emax, % ± SEM, percent of maximal response to GIP(1-42)NH2, 37° C., 0.1% bovine casein, arithmetic mean), 97.9 ± 1.99%.

In the case of `CC[C@H](C)[C@H](NC(=O)[C@H](CC(C)C)NC(=O)[C@](C)(Cc1ccc(O)cc1)NC(=O)[C@@H](CCC(=O)O)NC(=O)[C@@H](NC(=O)[C@](C)(Cc1ccccc1)NC(=O)[C@H](CCC(=O)O)NC(=O)C(C)(C)NC(=O)[C@H](CCC(N)=O)NC(=O)[C@H](C)NC(=O)[C@H](CCCCNC(=O)COCCOCCNC(=O)COCCOCCNC(=O)CC[C@H](NC(=O)CCCCCCCCCCCCC(=O)O)C(=O)O)NC(=O)[C@H](CCCN)NC(=O)[C@H](CC(=O)O)NC(=O)[C@H](CC(C)C)NC(=O)[C@](C)(CC(C)C)NC(=O)[C@@H](NC(=O)[C@H](CO)NC(=O)[C@H](Cc1ccncc1)NC(=O)[C@H](CC(=O)O)NC(=O)[C@H](CO)NC(=O)[C@@H](NC(=O)[C@](C)(Cc1ccccc1)NC(=O)[C@@H](NC(=O)CNC(=O)[C@H](CCC(=O)O)NC(=O)C(C)(C)NC(=O)[C@@H](N)Cc1ccc(O)cc1)[C@@H](C)O)[C@@H](C)O)[C@@H](C)CC)[C@@H](C)CC)C(=O)N[C@@H](CCC(=O)O)C(=O)NCC(=O)NCC(=O)N[C@@H](CCCCNC(=O)COCCOCCNC(=O)COCCOCCNC(=O)CC[C@H](NC(=O)CCCCCCCCCCCCC(=O)O)C(=O)O)C(=O)N[C@@H](CO)C(=O)N[C@@H](CO)C(=O)NCC(=O)N[C@@H](C)C(=O)N1CCC[C@H]1C(=O)N1CCC[C@H]1C(=O)N1CCC[C@H]1C(=O)N[C@@H](CO)C(N)=O` [Example 47], the EC50 at hGCGR (setting [1]) was greater than 9950 nM; on hGCGR (setting [2]), greater than 9950 nM; on hGIPR (setting [5]) it was 0.0138 nM; on hGLP-1R (0.1% bovine casein and 1.0% human serum albumin, 37° C., read-out: hGLP-1R EC50, nM (SEM, n)), 1670 nM. For the same molecule, the Emax at hGIPR (setting [3]) was 85.6%; on hGIPR (setting [4]), 89.8 ± 1.2%; at hGLP-1R (setting [6]), 134%; at hGLP-1R (setting [7]) it was 87.1 ± 14.1%.

As to `CC[C@H](C)[C@H](NC(=O)[C@H](CCCN)NC(=O)[C@H](CC(=O)O)NC(=O)[C@H](CC(C)C)NC(=O)[C@](C)(CC(C)C)NC(=O)[C@@H](NC(=O)C(C)(C)NC(=O)[C@H](Cc1ccncc1)NC(=O)[C@H](CC(=O)O)NC(=O)[C@H](CO)NC(=O)[C@@H](NC(=O)[C@](C)(Cc1ccccc1F)NC(=O)[C@@H](NC(=O)CNC(=O)[C@H](CCC(=O)O)NC(=O)C(C)(C)NC(=O)[C@@H](N)Cc1ccc(O)cc1)[C@@H](C)O)[C@@H](C)O)[C@@H](C)CC)C(=O)N[C@@H](C)C(=O)N[C@@H](CCC(N)=O)C(=O)NC(C)(C)C(=O)N[C@@H](CCCN)C(=O)N[C@@H](Cc1ccccc1)C(=O)N[C@H](C(=O)N[C@@H](CCCCNC(=O)COCCOCCNC(=O)COCCOCCNC(=O)CC[C@H](NC(=O)CCCCCCCCCCCCC(=O)O)C(=O)O)C(=O)N[C@@](C)(Cc1ccc(O)cc1)C(=O)N[C@@H](CC(C)C)C(=O)N[C@H](C(=O)N[C@@H](CCCCNC(=O)COCCOCCNC(=O)COCCOCCNC(=O)CC[C@H](NC(=O)CCCCCCCCCCCCC(=O)O)C(=O)O)C(=O)NCC(=O)NCC(=O)N1CCC[C@H]1C(=O)N[C@@H](CO)C(=O)N[C@@H](CO)C(=O)NCC(=O)N[C@@H](C)C(=O)N1CCC[C@H]1C(=O)N1CCC[C@H]1C(=O)N1CCC[C@H]1C(=O)N[C@@H](CO)C(N)=O)[C@@H](C)CC)[C@@H](C)CC` [Example 315] (H-Y[Aib]EGT[αMePhe(2-F)]TSD[4Pal][Aib]I[αMeL]LD[Orn]IAQ[Aib][Orn]FIK([AEEA-AEEA-γGlu-C14 diacid])[αMeY]LIK([AEEA-AEEA-γGlu-C14 diacid])GGPSSGAPPPS-NH2), the EC50 is greater than 9950 nM at hGCGR (setting [1]); greater than 9950 nM on hGCGR (cAMP, 37° C., 0.1% bovine casein (no human serum albumin), read-out: hGCGR EC50, nM (SEM, n)); 0.0245 nM on hGIPR (cAMP, 37° C., 0.1% bovine casein (no human serum albumin), read-out: hGIPR EC50, nM (SEM, n)); 0.376 nM at hGLP-1R (cAMP, 37° C., 0.1% bovine casein (no human serum albumin), read-out: hGLP-1R EC50, nM (SEM, n)). Also, the Emax on hGIPR (setting [3]) came to 89.2%; at hGLP-1R (setting [6]), 93.5%; on hGLP-1R (HEK293, cAMP, 37° C., 0.1% bovine casein, percent of maximal response to GLP-1(7-36)NH2, arithmetic mean), 98.9%.

Consider `CC[C@H](C)[C@H](NC(=O)[C@H](CC(C)C)NC(=O)[C@](C)(Cc1ccc(O)cc1)NC(=O)[C@@H](CCC(=O)O)NC(=O)[C@@H](NC(=O)[C@H](Cc1ccccc1)NC(=O)[C@H](CCCCNC(=O)COCCOCCNC(=O)COCCOCCNC(=O)COCCOCCNC(=O)CC[C@H](NC(=O)CCCCCCCCCCCCC(=O)O)C(=O)O)NC(=O)C(C)(C)NC(=O)[C@H](CCC(N)=O)NC(=O)[C@H](C)NC(=O)[C@H](CCCCNC(=O)COCCOCCNC(=O)COCCOCCNC(=O)COCCOCCNC(=O)CC[C@H](NC(=O)CCCCCCCCCCCCC(=O)O)C(=O)O)NC(=O)[C@H](CCCN)NC(=O)[C@H](CC(=O)O)NC(=O)[C@H](CC(C)C)NC(=O)[C@](C)(CC(C)C)NC(=O)[C@@H](NC(=O)[C@H](CO)NC(=O)[C@H](Cc1ccncc1)NC(=O)[C@H](CC(=O)O)NC(=O)[C@H](CO)NC(=O)[C@@H](NC(=O)[C@](C)(Cc1ccccc1F)NC(=O)[C@@H](NC(=O)CNC(=O)[C@H](CCC(=O)O)NC(=O)C(C)(C)NC(=O)[C@@H](N)Cc1ccc(O)cc1)[C@@H](C)O)[C@@H](C)O)[C@@H](C)CC)[C@@H](C)CC)C(=O)N[C@@H](CCC(=O)O)C(=O)NCC(=O)NCC(=O)N1CCC[C@H]1C(=O)N[C@@H](CO)C(=O)N[C@@H](CO)C(=O)NCC(=O)N[C@@H](C)C(=O)N1CCC[C@H]1C(=O)N1CCC[C@H]1C(=O)N1CCC[C@H]1C(=O)N[C@@H](CO)C(N)=O` [Example 77], for which the half-maximal effective concentration (EC50) on hGCGR (setting [2]) was greater than 9950 nM; at hGIPR (setting [5]), 0.0288 nM; on hGLP-1R (cAMP, incubated at 37° C., 0.1% bovine casein (no human serum albumin), read-out: hGLP-1R EC50, nM (SEM, n)), 3.03 nM. Also, the values for the Emax at hGIPR (setting [4]) and on hGLP-1R (setting [7]) were 94.8 ± 2.69% and 87 ± 1.71%, respectively.
